Measured values published in patent US7285554B2, “Pyrazole derivative” (Astellas Pharma Inc., priority 1997, dated 2007).

Tested on: IL-2 production from Jurkat cells
Assay: cells
Details: Homo sapiens, read-out: IL-2 production inhibition IC50 value

| SMILES | IC50 [nM] |
| --- | --- |
| Cn1nc(C(F)(F)F)cc1-c1ccc(C(=O)Nc2ccccc2Cl)s1 [Example 5, 2′-chloro-5-(1-methyl-3-trifluoromethyl-1H-pyrazol-5-yl)thiophene-2-carboxyanilide] | ≤ 1000 |
| Cc1ncsc1C(=O)Nc1ccc(-n2nc(C(F)(F)F)cc2C(F)(F)F)cc1 [Example 1, 4-methyl-4′-[3,5-bis(trifluoromethyl)-1H-pyrazol-1-yl]thiazole-5-carboxyanilide] | ≤ 1000 |
